The source of these data is ChEMBL document CHEMBL1201862, “PubChem BioAssay data set” (2004).

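Five concentrations, 48 hours, 96-well plates. The concentration for 50% growth inhibition is given as GI50.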 The source made the active and inactive calls. Cut-off read from the data, not from the text of the source: active = GI50 up to about 1.1 µM and inactive = higher. Where only a bound is given, the exact number is not on record here.

What all share (test): growth of human tumour cells (NCI), 48 h
The test system of assay [1] is A498.
For assay [2], the system named is A549.
The subject of assay [3] is ACHN.
For assay [4], the system named is CAKI-1.
Assay [5] concerns COLO 205.
Assay [6] deals with HOP-62.
The test system of assay [7] is HT-29.
Assay [8] deals with K562.
The subject of assay [9] is LOX IMVI.
In assay [10] the test system is M14.
Assay [11] has as its system MDA-MB-435.
Assay [12] relates to NCI-H522.
Assay [13] relates to OVCAR-5.
Assay [14] concerns PC-3.
Assay [15] relates to RXF 393.
The subject of assay [16] is SF-268.
Assay [17] has as its system SK-OV-3.
Assay [18] concerns SNB-75.
Assay [19] deals with SW-620.
The subject of assay [20] is UACC-62.

With `CC(=O)CCNc1ccc(-c2cc(-c3ccc(N(C)C)cc3)nc3ccc4ccccc4c23)cc1`, the GI50 in [1] is 43.8 µM (inactive); in [2] it was 34.1 µM (inactive); in assay [3], 17.8 µM (inactive); in assay [4], > 65.8 µM (inactive); in [5], 26.9 µM (inactive); in assay [6] it was > 100 µM (inactive). In addition, the GI50 in assay [7] was 66.2 µM (inactive); in assay [8] it was 19.6 µM (inactive); in [9], > 100 µM (inactive); in assay [10], 32.4 µM (inactive); in assay [11] it was > 60.7 µM (inactive); in assay [12], > 100 µM (inactive). In addition, the GI50 was > 100 µM (inactive) in [13]; 13.2 µM (inactive) in assay [14]; 12.3 µM (inactive) in [15]; > 44.5 µM (inactive) in assay [16]; > 100 µM (inactive) in assay [17]; 9.84 µM (inactive) in [18]. Further, the GI50 in [19] was > 100 µM (inactive); in [20] it was > 60.8 µM (inactive).

In the case of `COc1ccc(/C=C2\CN(C)C/C(=C\c3ccc(OC)c(OC)c3OC)C2=O)c(OC)c1OC`, the GI50 is 0.146 µM (active) in [1]; 0.294 µM (active) in assay [2]; 0.218 µM (active) in [3]; 0.485 µM (active) in [4]; 0.238 µM (active) in assay [5]; 0.294 µM (active) in [6]. Moreover, the GI50 is 0.171 µM (active) in assay [7]; 0.0192 µM (active) in assay [8]; 0.115 µM (active) in [9]; 0.073 µM (active) in assay [10]; 0.0199 µM (active) in assay [11]; 0.184 µM (active) in assay [12]. Moreover, the GI50 is 0.232 µM (active) in assay [13]; 0.231 µM (active) in assay [14]; 0.167 µM (active) in [15]; 0.164 µM (active) in assay [16]; 0.586 µM (active) in assay [17]; 0.973 µM (active) in [18]. In addition, the GI50 is 0.155 µM (active) in assay [19] and 0.2 µM (active) in [20].

Consider `Cc1nnc(-n2c(O)cc(=O)n(-c3ccccc3)c2=S)nc1/C=C/c1ccc(N(C)C)cc1`, for which the GI50 in assay [1] was 27.1 µM (inactive); in [2] it was 8.63 µM (inactive); in assay [3], 9.23 µM (inactive); in [4], 5.7 µM (inactive); in [5] it was 7.23 µM (inactive); in assay [6], 5.86 µM (inactive). Besides, the GI50 in [7] was 5 µM (inactive); in assay [8], 5.81 µM (inactive); in [9], 4.32 µM (inactive); in assay [10], 13.7 µM (inactive); in assay [11], 5.62 µM (inactive); in [12], 1.32 µM (inactive). Besides, the GI50 is 27.4 µM (inactive) in [13]; 8.41 µM (inactive) in [14]; 17.5 µM (inactive) in [15]; 22.4 µM (inactive) in assay [16]; 11.7 µM (inactive) in assay [17]; 4.38 µM (inactive) in assay [18]. Also, the GI50 is 12.9 µM (inactive) in assay [19] and 6.53 µM (inactive) in assay [20].

For `Cn1c2ccccc2n2c3ncccc3c(=S)c(C#N)c12`, the GI50 in assay [1], in assay [2], in assay [3], in assay [4], in assay [5] and in assay [6] was > 100 µM (inactive) in each case. Further, the GI50 in [7], in [8], in assay [9], in [10], in assay [11] and in assay [12] was > 100 µM (inactive) throughout. For the same compound, the GI50 in assay [13] is > 100 µM (inactive); in assay [14] it was > 100 µM (inactive); in assay [15], > 100 µM (inactive); in assay [16], > 100 µM (inactive); in assay [17], > 100 µM (inactive); in assay [18], 40.3 µM (inactive). Also, the GI50 in assay [19] and in assay [20] was > 100 µM (inactive) each time.

In the case of `NC1=NC(c2ccc(Cl)cc2)N(c2ccc(S(=O)(=O)Nc3ncccn3)cc2)C(N)=N1` (stereo not given), the GI50 in [1], in assay [2], in [3], in [4], in assay [5] and in assay [6] was > 100 µM (inactive) in each case. The GI50 in [7], in assay [8], in [9], in assay [10], in [11] and in assay [12] was > 100 µM (inactive) each time. The GI50 in assay [13], in [14], in [15], in assay [16], in assay [17] and in [18] was > 100 µM (inactive) in each case. For the same compound, the GI50 in [19] and in assay [20] was > 100 µM (inactive) each time.

For `Cc1ccc(N/N=C2\C3=C(CCC(C)(C)O3)C(=O)c3ccccc32)cc1`, the GI50 in assay [1] was 18.3 µM (inactive); in [2], 16 µM (inactive); in [3], 23.9 µM (inactive); in assay [4], 28.2 µM (inactive); in assay [5], 24.7 µM (inactive); in [6], 20.6 µM (inactive). Moreover, the GI50 was 18.8 µM (inactive) in [7]; 32.4 µM (inactive) in assay [8]; 10.3 µM (inactive) in [9]; 16.9 µM (inactive) in assay [10]; 17.9 µM (inactive) in assay [11]; 32.4 µM (inactive) in assay [12]. Besides, the GI50 in [13] was 18.4 µM (inactive); in [14], 37.6 µM (inactive); in [15] it was 32.4 µM (inactive); in [16], 30.3 µM (inactive); in assay [17], > 100 µM (inactive); in assay [18], 19.2 µM (inactive). Further, the GI50 is 33.8 µM (inactive) in assay [19] and 14.9 µM (inactive) in assay [20].

As for `Cc1ccc2c(c1)CN(C(=O)CCC(=O)OCc1ccccc1)c1ccc(C)cc1CN2C(=O)CCC(=O)OCc1ccccc1`, the GI50 in [1] is > 100 µM (inactive); in [2], > 100 µM (inactive); in assay [3], > 100 µM (inactive); in assay [4] it was > 100 µM (inactive); in [5] it was > 100 µM (inactive); in assay [6], > 78 µM (inactive). The GI50 in assay [7], in assay [8], in [9], in assay [10], in assay [11] and in assay [12] was > 100 µM (inactive) throughout. In addition, the GI50 in [13] was > 100 µM (inactive); in assay [14] it was > 100 µM (inactive); in assay [15], > 100 µM (inactive); in [16], > 100 µM (inactive); in assay [17] it was > 100 µM (inactive); in assay [18] it was 26.6 µM (inactive). The GI50 in [19] and in [20] was > 100 µM (inactive) throughout.

For the compound `COC(=O)/C=C1\C(=O)Nc2ccc(Br)cc21`, the GI50 in assay [1] is 5.22 µM (inactive); in assay [2] it was 3.15 µM (inactive); in assay [3], 1.71 µM (inactive); in assay [4], 1.04 µM (active); in assay [5] it was 1.67 µM (inactive); in [6], 2.06 µM (inactive). In addition, the GI50 was 1.73 µM (inactive) in assay [7]; 1.77 µM (inactive) in assay [8]; 0.804 µM (active) in [9]; 2.24 µM (inactive) in assay [10]; 1.87 µM (inactive) in assay [11]; 0.743 µM (active) in assay [12]. The GI50 in assay [13] was 1.54 µM (inactive); in assay [14] it was 1.43 µM (inactive); in assay [15], 1.54 µM (inactive); in assay [16] it was 3.49 µM (inactive); in assay [17], 3.53 µM (inactive); in [18], 1.99 µM (inactive). The GI50 in assay [19] was 1.2 µM (inactive); in assay [20], 1.56 µM (inactive).

As for `Clc1ccc(-c2nn3c(C45CC6CC(CC(C6)C4)C5)nnc3s2)cc1`, the GI50 in assay [1] was 50.2 µM (inactive); in assay [2], > 100 µM (inactive); in [3], 69.5 µM (inactive); in assay [4] it was > 100 µM (inactive); in assay [5] it was > 100 µM (inactive); in assay [6] it was > 100 µM (inactive). For the same compound, the GI50 in [7], in [8], in assay [9], in assay [10], in assay [11] and in assay [12] was > 100 µM (inactive) in each case. Also, the GI50 in assay [13], in assay [14], in assay [15], in assay [16], in assay [17] and in [18] was > 100 µM (inactive) each time. The GI50 in assay [19] and in [20] was > 100 µM (inactive) throughout.

With `CC(C)(C)Cc1cc(O)ccc1O`, the GI50 in [1] was > 100 µM (inactive); in [2], 58.9 µM (inactive); in assay [3], 86.1 µM (inactive); in assay [4], > 100 µM (inactive); in [5], > 100 µM (inactive); in [6], > 100 µM (inactive). Also, the GI50 in assay [7] is > 100 µM (inactive); in assay [8], 48.3 µM (inactive); in [9] it was 60.3 µM (inactive); in [10], 46.2 µM (inactive); in assay [11] it was 39.1 µM (inactive); in assay [12], 27 µM (inactive). Further, the GI50 in assay [13] was > 100 µM (inactive); in assay [14], > 100 µM (inactive); in assay [15], 98.6 µM (inactive); in assay [16], 87.9 µM (inactive); in [17], > 100 µM (inactive); in assay [18] it was 58.9 µM (inactive). Moreover, the GI50 in [19] was 61.9 µM (inactive); in assay [20], > 100 µM (inactive).
